This is an account of results in publication PMC7802075 (ACS Infectious Diseases, 2020).

The term inhibition denotes the change of the read-out against control, counted positive when it falls.

One assay deals with T1, LmjIPCS (inositol phosphorylceramide synthase from L. major) (Leishmania major, UniProt E9AFX2).
T1 sequence (E9AFX2 1-338): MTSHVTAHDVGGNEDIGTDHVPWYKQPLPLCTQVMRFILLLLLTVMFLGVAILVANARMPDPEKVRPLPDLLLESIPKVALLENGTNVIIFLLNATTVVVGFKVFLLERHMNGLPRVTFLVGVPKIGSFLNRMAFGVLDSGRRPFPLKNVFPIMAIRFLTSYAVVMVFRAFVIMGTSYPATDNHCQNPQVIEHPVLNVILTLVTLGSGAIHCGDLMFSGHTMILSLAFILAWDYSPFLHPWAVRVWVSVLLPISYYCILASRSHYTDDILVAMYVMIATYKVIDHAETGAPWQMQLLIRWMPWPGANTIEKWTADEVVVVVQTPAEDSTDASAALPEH
As to the kind of experiment: biochemical. The class given is biochemical. Details: inhibition: dose or concentration left out as unconfirmed.
Conditions: not given
In the case of `CC[C@H]1OC(=O)[C@H](C)[C@@H](O[C@H]2C[C@@](C)(OC)[C@@H](O)[C@H](C)O2)[C@H](C)[C@@H](O[C@@H]2O[C@H](C)C[C@H](N(C)C)[C@H]2O)[C@](C)(O)C[C@@H](C)[C@@H]2N[C@@H](COCCOC)O[C@H]([C@H]2C)[C@]1(C)O` [DIRITHROMYCIN], the “20mM inhibition LmjIPCS” value came to 47%. For the compound `O=C(CCCN1CC=C(n2c(=O)[nH]c3ccccc32)CC1)c1ccc(F)cc1` [DROPERIDOL], the “20mM inhibition LmjIPCS” value stood at 56%. Still for that read-out and setting: then `CCCCOc1ccc(C(=O)CCN2CCCCC2)cc1` [DYCLONINE], with 61%; and `O=c1c2ccccc2[se]n1-c1ccccc1` [EBSELEN], with 42%. For the compound `CN[C@@H](C)[C@H](O)c1ccccc1` [EPHEDRINE (1R,2S)], the “20mM inhibition LmjIPCS” value is listed as 8%. The same measure, in the same setting: then `CNC(=O)Oc1ccc2c(c1)[C@]1(C)CCN(C)[C@@H]1N2C` [ESERINE], with 9%; and `COc1ccc2c(c1)CC[C@@H]1[C@@H]2CC[C@]2(C)[C@@H](O)CC[C@@H]12` [ESTRADIOL METHYL ETHER], with 40%. On to `CCCCC(=O)O[C@H]1CC[C@H]2[C@@H]3CCc4cc(O)ccc4[C@H]3CC[C@]12C` [ESTRADIOL VALERATE], for which the “20mM inhibition LmjIPCS” value is reported as 66%. `C[C@]12CCC3c4ccc(OS(=O)(=O)[O-])cc4CCC3C1CC[C@H]2O.[Na+]` (stereo partly shown) [ESTRADIOL-3-SULFATE, SODIUM SALT]: the “20mM inhibition LmjIPCS” value worked out at 5.4%. Still for that read-out and setting: with `C[C@]12CCC3c4ccc(OC(=O)CCC(=O)O)cc4CCC3C1CCC2=O` (stereo partly shown) [ESTRONE HEMISUCCINATE] the figure was 12%; with `CCN(CC)C(C)CN1c2ccccc2Sc2ccccc21` (stereo not shown) [ETHOPROPAZINE], 63%.

The same assay, now with this note: NINDS set screen, single concentration printed as 20mM.
Take `CCn1cc(C(=O)O)c(=O)c2cc(F)c(N3CCNCC3)nc21` [ENOXACIN]: the “20mM inhibition LmjIPCS” value is reported as 56%. The same measure, in the same setting: then `CC(=O)Oc1ccc2c(c1)CC[C@@H]1[C@@H]2CC[C@]2(C)[C@@H](O)CC[C@@H]12` [ESTRADIOL ACETATE], with 68%; and `CC12CCC3c4ccc(OCc5ccccc5)cc4CCC3C1C[C@@H](O)[C@@H]2O` (stereo partly shown) [ESTRIOL BENZYL ETHER], with 42%.

The same assay, now with this note: NINDS set screen; read-out: inhibition LmjIPCS.
Take `C[C@H]1c2cccc(O)c2C(=O)C2=C(O)[C@]3(O)C(=O)C(C(N)=O)=C(O)[C@@H](N(C)C)[C@@H]3[C@@H](O)[C@@H]21` [DOXYCYCLINE]: the inhibition worked out at 30%. For `Cn1c(=O)c2c(ncn2CC(O)CO)n(C)c1=O` (stereo not shown) [DYPHYLLINE], the inhibition was -5.31%. On to `CCCCCCCC/C=C/CCCCCCCCOP(=O)([O-])OCC[N+](C)(C)C` [ELAIDYLPHOSPHOCHOLINE], for which the inhibition is -7%. Turning to `O=c1oc2c(O)c(O)cc3c(=O)oc4c(O)c(O)cc1c4c23` [ELLAGIC ACID], the inhibition was determined as 22%.

Turning to `O=C(O)c1cc(O)c2c(c1)C(=O)c1cc(O)cc(O)c1C2=O` [EMODIC ACID], the inhibition amounted to 14%. Same read-out and setting: with `CCC(=O)O[C@H]1[C@H](O[C@@H]2[C@@H](C)[C@H](O[C@H]3C[C@@](C)(OC)[C@@H](O)[C@H](C)O3)[C@@H](C)C(=O)O[C@H](CC)[C@@](C)(O)[C@H](O)[C@@H](C)C(=O)[C@H](C)C[C@@]2(C)O)O[C@H](C)C[C@@H]1N(C)C` [ERYTHROMYCIN ESTOLATE] the figure was 22%; with `CCOc1ccc(Cc2nccc3cc(OCC)c(OCC)cc23)cc1OCC` [ETHAVERINE], -7%; with `C#C[C@]1(O)CC[C@H]2[C@@H]3CCc4cc(O)ccc4[C@H]3CC[C@@]21C` [ETHINYL ESTRADIOL], -11%. The same measure, in the same setting: with `O=C1[C@H](CC[C@H](O)c2ccc(F)cc2)[C@@H](c2ccc(O)cc2)N1c1ccc(F)cc1` [EZETIMIBE] the figure was 23%.

The assay is the same for the next values; noted with them: read-out: 20mM inhibition LmjIPCS.
Take `NCCc1ccc(O)c(O)c1` [DOPAMINE]: the inhibition at 20000 µM was -1.1%.

Consider `OCC(O)CN1CCN(c2ccccc2)CC1` (stereo not shown) [DROPROPIZINE], for which the inhibition at 20000 µM was determined as 18%. Take `CC[N+](C)(C)c1cccc(O)c1` [EDROPHONIUM]: the inhibition at 20000 µM turned out to be 12%. The same measure, in the same setting: with `CC[C@H]1CN2CCc3cc(OC)c(OC)cc3[C@@H]2C[C@@H]1C[C@H]1NCCc2cc(OC)c(OC)cc21` [EMETINE] the figure was 11%. As to `C[C@@H](CO)NC(=O)[C@@H]1C=C2c3cccc4[nH]cc(c34)C[C@H]2N(C)C1` [ERGONOVINE], the inhibition at 20000 µM came out at 6.33%.

As for `C[C@]12CC[C@@H]3c4ccc(O)cc4CC[C@H]3[C@@H]1CC[C@@H]2O` [ESTRADIOL], the inhibition at 20000 µM was -5.65%. In the case of `C[C@]12CC[C@@H]3c4ccc(O)cc4CC[C@H]3[C@@H]1CCC2=O` [ESTRONE], the inhibition at 20000 µM came to 1.15%.

With `O=C(Cn1ccnc1[N+](=O)[O-])NCCO` [ETANIDAZOLE], the inhibition at 20000 µM is 3.58%.

Turning to `CCc1cc(C(N)=S)ccn1` [ETHIONAMIDE], the inhibition at 20000 µM is -5.39%. `C#C[C@]1(O)CC[C@H]2[C@@H]3CCC4=CC(=O)CC[C@]4(C)[C@H]3CC[C@@]21C` [ETHISTERONE]: the inhibition at 20000 µM worked out at 2.43%. Same read-out and setting: then `CCC(N)C(O)c1ccc(O)c(O)c1` (stereo not shown) [ETHYLNOREPINEPHRINE], with -9%; and `CC(=O)OCC(CCn1cnc2cnc(N)nc21)COC(C)=O` [FAMCICLOVIR], with 1.36%.

As for `NC(N)=Nc1nc(CSCCC(N)=NS(N)(=O)=O)cs1` [FAMOTIDINE], the inhibition at 20000 µM was found to be 14%. As for `O=C(O)CCC(=O)c1ccc(-c2ccccc2)cc1` [FENBUFEN], the inhibition at 20000 µM was 12%.

The same assay, now with this note: read-out: inhibition LmjIPCS.
For `CC(C)N(CCC(C(N)=O)(c1ccccc1)c1ccccn1)C(C)C` (stereo not shown) [DISOPYRAMIDE], the inhibition was found to be 10%. Turning to `CN(C)CCOC(C)(c1ccccc1)c1ccccn1` (stereo not shown) [DOXYLAMINE], the inhibition was found to be 9%.

`C=C1CC[C@H](O)C/C1=C/C=C1\CCC[C@]2(C)[C@@H]([C@H](C)/C=C/[C@H](C)C(C)C)CC[C@@H]12` [ERGOCALCIFEROL]: the inhibition is -1.77%.

Take `C[C@]12CC[C@@H]3c4ccc(O)cc4CC[C@H]3[C@@H]1C[C@@H](O)[C@@H]2O` [ESTRIOL]: the inhibition is 1.42%. On the same count and under the same terms, then `CC[C@@H](CO)NCCN[C@@H](CC)CO` [ETHAMBUTOL], with -1.19%; and `CCc1cccc2c3c([nH]c12)C(CC)(CC(=O)O)OCC3` (stereo not shown) [ETODOLAC], with 13%.

In the case of `C=CCc1ccc(O)c(OC)c1` [EUGENOL], the inhibition is 7%. On the same count and under the same terms, then `COC(=O)Nc1nc2ccc(Sc3ccccc3)cc2[nH]1` [FENBENDAZOLE], with 20%.

Staying with this assay, now noted: screening of NINDS set, sheet Screen 1; read-out: inhibition LmjIPCS.
Turning to `CC(=O)Oc1ccc2c(c1)CCC1C2CC[C@]2(C)C(=O)CCC12` (stereo partly shown) [ESTRONE ACETATE], the inhibition came to 8.56%.

For `CCC1(C)CC(=O)NC1=O` (stereo not shown) [ETHOSUXIMIDE], the inhibition was found to be 6%. Still for that read-out and setting: then `CC1CC(OC(=O)C(O)c2ccccc2)CC(C)(C)N1C` (stereo not shown) [EUCATROPINE], with 8%.

As to `CCCCCCOc1ccccc1C(N)=O` [EXALAMIDE], the inhibition worked out at 8%. For the compound `CCC(C(N)=O)c1ccccc1` (stereo not shown) [FENBUTYRAMIDE], the inhibition was 9%.

The assay is the same for the next values; noted with them: single concentration 20mM as printed; screening of NINDS set, sheet Screen 1.
Take `CC(=O)Oc1ccc2c(c1)CC[C@@H]1[C@@H]2CC[C@]2(C)[C@@H](OC(C)=O)CC[C@@H]12` [ESTRADIOL DIACETATE]: the “20mM inhibition LmjIPCS” value came to 1.59%. The same measure, in the same setting: with `COc1ccc2c(c1)CC[C@@H]1[C@@H]2CC[C@]2(C)[C@@H](O)[C@H](O)C[C@@H]12` [ESTRIOL METHYL ETHER] the figure was 8%.
